According to PubChem BioAssay (NCI):
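Method: 48-hour compound exposure of cells in 96-well plates, five concentrations, linear interpolation of endpoints. TGI is the concentration that stops growth completely.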

What was measured:
Assay in all cases: inhibition of tumour cell growth, NCI panel, 48 h
ACHN renal = tested on: ACHN renal
SR leukemia = tested on: SR leukemia
SK-OV-3 ovarian = tested on: SK-OV-3 ovarian
OVCAR-5 ovarian = tested on: OVCAR-5 ovarian
MALME-3M melanoma = tested on: MALME-3M melanoma
A549 NSCLC = tested on: A549 NSCLC
SF-268 CNS = tested on: SF-268 CNS
RXF 393 renal = tested on: RXF 393 renal
SNB-75 CNS = tested on: SNB-75 CNS
OVCAR-3 ovarian = tested on: OVCAR-3 ovarian
KM12 colon = tested on: KM12 colon
NCI-H23 lung = tested on: NCI-H23 lung
IGROV1 ovarian = tested on: IGROV1 ovarian
SN12C renal = tested on: SN12C renal
NCI-H226 lung = tested on: NCI-H226 lung
PC-3 prostate = tested on: PC-3 prostate
SK-MEL-2 melanoma = tested on: SK-MEL-2 melanoma
786-0 renal = tested on: 786-0 renal
OVCAR-8 ovarian = tested on: OVCAR-8 ovarian
SF-539 CNS = tested on: SF-539 CNS
NCI-H522 lung = tested on: NCI-H522 lung
U251 CNS = tested on: U251 CNS
MOLT-4 leukemia = tested on: MOLT-4 leukemia
OVCAR-4 ovarian = tested on: OVCAR-4 ovarian
CAKI-1 renal = tested on: CAKI-1 renal
HCT-15 colon = tested on: HCT-15 colon
UACC-257 melanoma = tested on: UACC-257 melanoma
HL-60(TB) leukemia = tested on: HL-60(TB) leukemia
SK-MEL-5 melanoma = tested on: SK-MEL-5 melanoma
SK-MEL-28 melanoma = tested on: SK-MEL-28 melanoma
EKVX NSCLC = tested on: EKVX NSCLC
TK-10 renal = tested on: TK-10 renal
DU-145 prostate = tested on: DU-145 prostate
SW-620 colon = tested on: SW-620 colon
M14 melanoma = tested on: M14 melanoma
HCT-116 colon = tested on: HCT-116 colon
HCC-2998 colon = tested on: HCC-2998 colon
CCRF-CEM leukemia = tested on: CCRF-CEM leukemia
SNB-19 CNS = tested on: SNB-19 CNS
MDA-N = tested on: MDA-N
BT-549 breast = tested on: BT-549 breast
COLO 205 colon = tested on: COLO 205 colon
RPMI-8226 leukemia = tested on: RPMI-8226 leukemia
HOP-62 NSCLC = tested on: HOP-62 NSCLC
NCI/ADR-RES ovarian = tested on: NCI/ADR-RES ovarian
MCF7 breast = tested on: MCF7 breast
UO-31 renal = tested on: UO-31 renal
HOP-92 NSCLC = tested on: HOP-92 NSCLC
UACC-62 melanoma = tested on: UACC-62 melanoma
MDA-MB-435 = tested on: MDA-MB-435
A498 renal = tested on: A498 renal
LOX IMVI melanoma = tested on: LOX IMVI melanoma
MDA-MB-231 breast = tested on: MDA-MB-231 breast
NCI-H460 lung = tested on: NCI-H460 lung
HS 578T breast = tested on: HS 578T breast
T-47D breast = tested on: T-47D breast
HT29 colon = tested on: HT29 colon
K-562 leukemia = tested on: K-562 leukemia
SF-295 CNS = tested on: SF-295 CNS

O=C(CC(=O)Nc1ccccc1Cl)NNC(c1cc(N=Nc2ccc(Br)cc2)ccc1O)P(O)O (centres undefined) showed a TGI (ACHN renal) greater than 10 µM, a TGI (SR leukemia) greater than 10 µM and a TGI (SK-OV-3 ovarian) greater than 10 µM. For the same molecule, the TGI (OVCAR-5 ovarian) was greater than 10 µM, the TGI (MALME-3M melanoma) was greater than 10 µM and the TGI (A549 NSCLC) was greater than 10 µM. The TGI (SF-268 CNS) was greater than 10 µM, the TGI (RXF 393 renal) was greater than 10 µM and the TGI (SNB-75 CNS) was 9.72 µM. It also gave a TGI (OVCAR-3 ovarian) greater than 10 µM, a TGI (KM12 colon) greater than 10 µM and a TGI (NCI-H23 lung) greater than 10 µM. The TGI (IGROV1 ovarian) was greater than 10 µM, the TGI (SN12C renal) was greater than 10 µM and the TGI (NCI-H226 lung) was 6 µM. The TGI (PC-3 prostate) was greater than 10 µM, the TGI (SK-MEL-2 melanoma) was greater than 10 µM and the TGI (786-0 renal) was greater than 10 µM. It also gave a TGI (OVCAR-8 ovarian) of 3.57 µM, a TGI (SF-539 CNS) of 5.89 µM and a TGI (NCI-H522 lung) greater than 10 µM. It also gave a TGI (U251 CNS) greater than 10 µM, a TGI (MOLT-4 leukemia) greater than 10 µM and a TGI (OVCAR-4 ovarian) greater than 10 µM. For the same molecule, the TGI (CAKI-1 renal) was 6.71 µM, the TGI (HCT-15 colon) was greater than 10 µM and the TGI (UACC-257 melanoma) was greater than 10 µM. It also gave a TGI (HL-60(TB) leukemia) of 1.18 µM, a TGI (SK-MEL-5 melanoma) of 4.96 µM and a TGI (SK-MEL-28 melanoma) greater than 10 µM. It also gave a TGI (EKVX NSCLC) greater than 10 µM, a TGI (TK-10 renal) greater than 10 µM and a TGI (DU-145 prostate) greater than 10 µM. It also gave a TGI (SW-620 colon) greater than 10 µM, a TGI (M14 melanoma) of 2.72 µM and a TGI (HCT-116 colon) of 0.964 µM. For the same molecule, the TGI (HCC-2998 colon) was greater than 10 µM, the TGI (CCRF-CEM leukemia) was 9.58 µM and the TGI (SNB-19 CNS) was greater than 10 µM. It also gave a TGI (MDA-N) greater than 10 µM, a TGI (BT-549 breast) greater than 10 µM and a TGI (COLO 205 colon) greater than 10 µM. It also gave a TGI (RPMI-8226 leukemia) greater than 10 µM, a TGI (HOP-62 NSCLC) greater than 10 µM and a TGI (NCI/ADR-RES ovarian) greater than 10 µM. It also gave a TGI (MCF7 breast) greater than 10 µM, a TGI (UO-31 renal) greater than 10 µM and a TGI (HOP-92 NSCLC) greater than 10 µM. It also gave a TGI (UACC-62 melanoma) of 6.12 µM, a TGI (MDA-MB-435) greater than 10 µM and a TGI (A498 renal) of 7.87 µM. For the same molecule, the TGI (LOX IMVI melanoma) was 9.51 µM, the TGI (MDA-MB-231 breast) was greater than 10 µM and the TGI (NCI-H460 lung) was greater than 10 µM. For the same molecule, the TGI (HS 578T breast) was greater than 10 µM, the TGI (T-47D breast) was greater than 10 µM and the TGI (HT29 colon) was greater than 10 µM. It also gave a TGI (K-562 leukemia) of 6.78 µM and a TGI (SF-295 CNS) greater than 10 µM.
